From paper PMC10569036

Columns and labels:
[1] = shake flask on a mixture of 185; loss from the water phase only; LC-QTOF peak areas; details: room
[2] = shake flask on a mixture of 185; loss from the water phase only; LC-Orbitrap peak areas; details: room

| log partition 1-octanol / HPLC water, unbuffered, traces of methanol / DMSO [2] | log partition butyl acetate / HPLC water, unbuffered, traces of methanol / DMSO [2] | log partition chloroform / HPLC water, unbuffered, traces of methanol / DMSO [2] | log partition cyclohexane / HPLC water, unbuffered, traces of methanol / DMSO [2] | log partition dichloromethane / HPLC water, unbuffered, traces of methanol / DMSO [2] | log partition n-hexane / HPLC water, unbuffered, traces of methanol / DMSO [2] | log partition n-octane / HPLC water, unbuffered, traces of methanol / DMSO [2] | log partition n-undecane / HPLC water, unbuffered, traces of methanol / DMSO [2] | log partition oleylalcohol / HPLC water, unbuffered, traces of methanol / DMSO [2] | log partition toluene / HPLC water, unbuffered, traces of methanol / DMSO [2] | Structure (SMILES) | log partition 1-octanol / HPLC water, unbuffered, traces of methanol / DMSO [1] | log partition butyl acetate / HPLC water, unbuffered, traces of methanol / DMSO [1] | log partition chloroform / HPLC water, unbuffered, traces of methanol / DMSO [1] | log partition cyclohexane / HPLC water, unbuffered, traces of methanol / DMSO [1] | log partition dichloromethane / HPLC water, unbuffered, traces of methanol / DMSO [1] | log partition n-hexane / HPLC water, unbuffered, traces of methanol / DMSO [1] | log partition n-octane / HPLC water, unbuffered, traces of methanol / DMSO [1] | log partition n-undecane / HPLC water, unbuffered, traces of methanol / DMSO [1] | log partition oleylalcohol / HPLC water, unbuffered, traces of methanol / DMSO [1] | log partition toluene / HPLC water, unbuffered, traces of methanol / DMSO [1] |
| --- | --- | --- | --- | --- | --- | --- | --- | --- | --- | --- | --- | --- | --- | --- | --- | --- | --- | --- | --- | --- |
| 1.279 log10 | 1.476 log10 | 1.242 log10 | 1.195 log10 | 1.399 log10 | 1.051 log10 | 1.355 log10 | 0.8718 log10 | 1.396 log10 | 1.5 log10 | CCCOC(=O)c1ccc(C(=O)OCCC)nc1 | 2.274 log10 | 2.305 log10 | 2.347 log10 | 2.074 log10 | 2.554 log10 | 2.244 log10 | 2.086 log10 | 2.019 log10 | 2.412 log10 | 2.485 log10 |
| 1.544 log10 | 1.55 log10 | 1.889 log10 | 2.061 log10 | 1.493 log10 | 1.296 log10 | 1.432 log10 | 1.36 log10 | 0.7925 log10 | 1.17 log10 | CCc1ccc(C(=O)NN(C(=O)c2cc(C)cc(C)c2)C(C)(C)C)cc1 | 1.362 log10 | 1.733 log10 | 1.756 log10 | 1.284 log10 | 1.824 log10 | 1.035 log10 | 0.9128 log10 | 0.8541 log10 | 1.649 log10 | 1.989 log10 |
| 1.509 log10 | 1.21 log10 | 1.689 log10 | 0.5819 log10 | 1.83 log10 | 0.2985 log10 | 0.4632 log10 | 0.151 log10 | 0.9177 log10 | 1.122 log10 | CCCCNS(=O)(=O)c1ccc(C)cc1 | 1.761 log10 | 1.471 log10 | 1.664 log10 | 0.988 log10 | 1.556 log10 | 0.6036 log10 | 0.3273 log10 | 0.4324 log10 | 1.505 log10 | 1.679 log10 |

Second part, the compound before the results:

| Structure (SMILES) | log partition 1-octanol / HPLC water, unbuffered, traces of methanol / DMSO [2] | log partition butyl acetate / HPLC water, unbuffered, traces of methanol / DMSO [2] | log partition chloroform / HPLC water, unbuffered, traces of methanol / DMSO [2] | log partition cyclohexane / HPLC water, unbuffered, traces of methanol / DMSO [2] | log partition dichloromethane / HPLC water, unbuffered, traces of methanol / DMSO [2] | log partition n-hexane / HPLC water, unbuffered, traces of methanol / DMSO [2] | log partition n-octane / HPLC water, unbuffered, traces of methanol / DMSO [2] | log partition n-undecane / HPLC water, unbuffered, traces of methanol / DMSO [2] | log partition oleylalcohol / HPLC water, unbuffered, traces of methanol / DMSO [2] | log partition toluene / HPLC water, unbuffered, traces of methanol / DMSO [2] | log partition 1-octanol / HPLC water, unbuffered, traces of methanol / DMSO [1] | log partition butyl acetate / HPLC water, unbuffered, traces of methanol / DMSO [1] | log partition chloroform / HPLC water, unbuffered, traces of methanol / DMSO [1] | log partition cyclohexane / HPLC water, unbuffered, traces of methanol / DMSO [1] | log partition dichloromethane / HPLC water, unbuffered, traces of methanol / DMSO [1] | log partition n-hexane / HPLC water, unbuffered, traces of methanol / DMSO [1] | log partition n-octane / HPLC water, unbuffered, traces of methanol / DMSO [1] | log partition n-undecane / HPLC water, unbuffered, traces of methanol / DMSO [1] | log partition oleylalcohol / HPLC water, unbuffered, traces of methanol / DMSO [1] | log partition toluene / HPLC water, unbuffered, traces of methanol / DMSO [1] |
| --- | --- | --- | --- | --- | --- | --- | --- | --- | --- | --- | --- | --- | --- | --- | --- | --- | --- | --- | --- | --- |
| CO/N=C(/C1=NOCCO1)c1ccccc1Oc1ncnc(Oc2ccccc2Cl)c1F | 3.061 log10 | 2.459 log10 | 1.134 log10 | 1.413 log10 | 1.68 log10 | 1.053 log10 | 1.336 log10 | 1.233 log10 | 1.908 log10 | 1.832 log10 | 2.317 log10 | 2.442 log10 | 2.253 log10 | 1.674 log10 | 2.488 log10 | 1.734 log10 | 1.431 log10 | 1.557 log10 | 2.253 log10 | 2.389 log10 |
| Cc1ccc([N+](=O)[O-])cc1S(=O)(=O)O | 1.274 log10 | 1.798 log10 | 2.228 log10 | 0.6608 log10 | 2.4 log10 | 0.3087 log10 | 0.3589 log10 | 0.261 log10 | 0.9359 log10 | 1.703 log10 | 2.399 log10 | 2.641 log10 | 2.843 log10 | 0.5479 log10 | 2.477 log10 | 0.3824 log10 | 0.4393 log10 | 0.4122 log10 | 2.608 log10 | 2.304 log10 |
| CCc1nn(C)c(C(=O)NCc2ccc(C(C)(C)C)cc2)c1Cl | 1.459 log10 | 1.634 log10 | 0.2173 log10 | 0.942 log10 | 3.08 log10 | 0.5625 log10 | 1.395 log10 | 0.9075 log10 | 1.51 log10 | 1.132 log10 | 0.9057 log10 | 1.589 log10 | 1.982 log10 | 2.337 log10 | 2.036 log10 | 2.449 log10 | 2.089 log10 | 1.893 log10 | 0.96 log10 | 1.518 log10 |
| COC(=O)C(C)N(C(=O)c1ccco1)c1c(C)cccc1C (stereo not drawn) | 1.653 log10 | 2.039 log10 | 1.758 log10 | – | 1.796 log10 | – | – | – | 1.315 log10 | 1.918 log10 | 2.113 log10 | 2.322 log10 | 2.434 log10 | – | 2.829 log10 | – | – | – | 2.215 log10 | 2.516 log10 |
